The target of one data set is BRAF^V600E. Put plainly: BRAF^V600E kinase inhibitory assay.
The subject of the next data set is breast cancer (MCF-7). Put plainly: Antiproliferative MTT assay, MCF-7. It counts as cell-based. As to conditions: Homo sapiens, MCF7, MCF-7 breast cancer cells, read-out: Antiproliferative activity IC50 ± SEM, MCF-7. The method, then:
(§1) The median inhibitory concentration (IC50) and GI50 (mean IC50) for the four cancer cell lines were calculated. Appendix A ^† contains more details. […]
A general note: Tetrazolium assays rely on reduction of a dye to a coloured formazan, in cell work by metabolically active cells.

A further data set relates to lung cancer (A-549). Put plainly: Antiproliferative MTT assay, A-549. It counts as cell-based. As to conditions: Homo sapiens, A549, A-549 lung cancer cells, read-out: Antiproliferative activity IC50 ± SEM, A-549. The method, then: as §1
Data set [1] has as its system four human cancer cell lines (A-549, MCF-7, Panc-1, HT-29). Put plainly: Antiproliferative MTT assay, mean over the four cancer cell lines. It counts as cell-based. The following applies: mean IC50 over A-549, MCF-7, Panc-1, HT-29. The protocol:
as §1

The subject of a further data set is colon cancer (HT-29). Put plainly: Antiproliferative MTT assay, HT-29. The class given is cell-based. As to conditions: Homo sapiens, HT-29 colon cancer cells, read-out: Antiproliferative activity IC50 ± SEM, HT-29. The protocol: as §1
Data set [2] deals with pancreatic cancer (Panc-1). Put plainly: Antiproliferative MTT assay, Panc-1. The class given is cell-based. As to conditions: Homo sapiens, Panc-1 pancreatic cancer cells, read-out: Antiproliferative activity IC50 ± SEM, Panc-1. The protocol:
as §1

Data set [3] is described as follows: Cell viability MTT assay on MCF-10A normal cells. It counts as cell-based. As to conditions: human, MCF-10A normal mammary gland epithelial cells, MCF-10A cells, four days of incubation. The protocol:
The viability of new compounds 8a–t was evaluated using the MCF-10A normal human mammary gland epithelial cell line. The cell viability of compounds 8a–t was examined using the MTT assay[36] after four days of incubation with MCF-10A cells. For more details, see Appendix A (ESI file). ^† […]
We evaluated the viability of new compounds 8a–t using the MCF-10A normal human mammary gland epithelial cell line. The cell viability of compounds 8a–t was examined using the MTT assay[36] after four days of incubation with MCF-10A cells.
4.2. Biological evaluation
4.2.1. Cytotoxic activity using MTT Assay and evaluation of IC 50
MTT assay was carried out to study the effect of compounds on mammary epithelial cells (MCF-10A). The medium in which cells were propagated contained Dulbecco's modified Eagle's medium (DMEM)/ Ham's F-12 medium (1:1) supplemented with epidermal growth factor (20 ng/mL), hydrocortisone (500 ng/mL), insulin (10 μg/mL), 2 mM glutamine and 10% foetal calf serum.
After every 2-3 days, the cells were passaged using trypsin ethylenediamine tetra acetic acid (EDTA). The cells were seeded at a density of 10^4 cells mL-1 in flat-bottomed culture plates containing 96 wells each. After 24 h, medium was removed from the plates and the compounds in (in 0.1% DMSO) were added (in 200 μL medium to yield a final concentration of 0.1% v/v) to the wells of plates. A single compound was designated with four wells followed by incubation of plates for 96h at 37°C. After incubation, medium was removed completely from the plates followed by addition of MTT (0.4 mg/mL in medium) to each well and subsequent incubation of plates for 3h. MTT (along with the medium) was removed and DMSO (150μL) was added to each well of the culture plates, followed by vortexing and subsequent measurement of absorbance (at 540 nm) using microplate reader. The data are shown as percentage inhibition of proliferation in comparison with controls containing 0.1% DMSO. […]

The target in the next data set is T1, EGFR (Homo sapiens, UniProt P00533).
T1 construct: 645–1186; His6 (N); made in house; host or cells: Sf-9 insect cells (baculovirus; pBlueBacHis2B / pFASTBacHTc)
T1 sequence (P00533 669-1210): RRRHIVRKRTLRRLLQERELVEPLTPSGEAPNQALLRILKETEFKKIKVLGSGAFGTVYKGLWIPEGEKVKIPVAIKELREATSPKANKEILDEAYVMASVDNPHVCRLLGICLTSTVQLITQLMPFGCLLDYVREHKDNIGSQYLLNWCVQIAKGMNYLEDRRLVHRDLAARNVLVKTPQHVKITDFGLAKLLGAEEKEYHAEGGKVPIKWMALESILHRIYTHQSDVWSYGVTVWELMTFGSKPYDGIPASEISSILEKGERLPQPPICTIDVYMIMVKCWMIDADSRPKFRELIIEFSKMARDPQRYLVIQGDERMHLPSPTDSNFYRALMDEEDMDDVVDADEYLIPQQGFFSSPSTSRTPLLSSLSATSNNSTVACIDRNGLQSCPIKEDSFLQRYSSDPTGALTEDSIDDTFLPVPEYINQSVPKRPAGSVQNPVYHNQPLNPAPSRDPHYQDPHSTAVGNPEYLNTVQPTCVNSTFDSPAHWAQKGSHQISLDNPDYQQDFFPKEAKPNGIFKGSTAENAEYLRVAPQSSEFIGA
Put plainly: EGFR-TK inhibitory assay. It counts as biochemical. The following applies: read-out: EGFR inhibition IC50 ± SEM. The method, then: Sf-9 cells were infected for 72h for protein expression. […]
centrifugation for 20 min.
Histidine-linked proteins were first eluted with 250 and then […]
using wash buffer. Europium-tagged antiphosphotyrosine antibody (75 µL, 400 ng) was added to each well followed by incubation of 1h and then washing of the plates using buffer. The enhancement solution was added to each well and the signal was recorded at excitation and […]
The autophosphorylation percentage inhibition by compounds was calculated using the following equation: […]

Chain of BRAF^V600E (P28028 whole entry V585E): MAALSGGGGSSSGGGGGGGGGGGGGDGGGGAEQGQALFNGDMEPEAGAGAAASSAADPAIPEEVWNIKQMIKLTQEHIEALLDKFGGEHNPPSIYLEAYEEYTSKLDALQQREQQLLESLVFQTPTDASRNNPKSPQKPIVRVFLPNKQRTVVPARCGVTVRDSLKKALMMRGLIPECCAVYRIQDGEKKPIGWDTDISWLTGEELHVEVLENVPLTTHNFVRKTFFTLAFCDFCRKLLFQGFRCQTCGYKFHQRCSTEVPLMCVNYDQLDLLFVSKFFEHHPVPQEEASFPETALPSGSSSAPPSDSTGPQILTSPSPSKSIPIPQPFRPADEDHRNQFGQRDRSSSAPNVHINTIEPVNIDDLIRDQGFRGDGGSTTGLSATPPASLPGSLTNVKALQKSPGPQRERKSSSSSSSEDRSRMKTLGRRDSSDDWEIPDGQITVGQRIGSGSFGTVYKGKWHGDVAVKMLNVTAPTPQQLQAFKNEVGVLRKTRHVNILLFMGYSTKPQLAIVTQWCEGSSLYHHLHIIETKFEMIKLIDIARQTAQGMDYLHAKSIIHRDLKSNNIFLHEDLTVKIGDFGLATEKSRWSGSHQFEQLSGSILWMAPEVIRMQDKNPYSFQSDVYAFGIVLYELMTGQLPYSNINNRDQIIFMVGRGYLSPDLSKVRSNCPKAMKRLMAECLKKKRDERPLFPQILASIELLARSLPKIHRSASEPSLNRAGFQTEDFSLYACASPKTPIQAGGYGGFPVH
Experimental for BRAF^V600E: V600E mutant BRAF kinase assay was performed to investigate the activity of tested compounds against BRAF. Mouse full-length GST-tagged BRAFV600E (7.5 ng, Invitrogen, PV3849) was pre-incubated with drug (1 µL) and assay dilution buffer (4 µL) for 60 min at 25 °C. In assay dilution buffer, a solution (5 µL) containing MgCl2 (30 mM), ATP (200 µM), recombinant human full length (200 ng) and N-terminal His-tagged MEK1 (Invitrogen) was added to start the assay, subsequent to incubation for 25 min at 25 °C. The assay was stopped using 5X protein denaturing buffer (LDS) solution (5 µL). To further denature the protein, heat (70° C) was applied for 5 min.
10 µL of each reaction was loaded into the precast plates and electrophoresis was allowed to proceed. After completion of electrophoresis, the front part of the precast gel plate (holding hot ATP) was cut and afterwards cast-off. The dried gel was developed using a phosphor screen. A

`Cc1ccc(-n2cc(CSc3nc4ccccc4c(=O)n3-c3cccc(C)c3)nn2)cc1` [Compound 8l, 2-(((1-(p-Tolyl)-1H-1,2,3-triazol-4-yl)methyl)thio)-3-(m-tolyl)quinazolin-4(3H)-one]: the IC50 (commonly the concentration at which inhibition is half-maximal) at BRAF^V600E worked out at 64 ± 5 nM; in the data set on breast cancer (MCF-7), 29 ± 2 nM; with lung cancer (A-549), 33 ± 2 nM; in the data set with colon cancer (HT-29), 35 ± 2 nM; in data set [2] it was 36 ± 2 nM; on EGFR it was 83 ± 5 nM. Also, the GI50 (as a rule, the concentration that inhibits growth by half) in data set [1] (Homo sapiens) was determined as 33 nM. In addition, the viability (commonly a read-out of living cells in per cent, often relative to untreated cells) at 4 days, 50 µM in data set [3] was 87%.
Turning to `Cc1ccc(-n2c(SCc3cn(-c4ccc(Cl)cc4)nn3)nc3ccccc3c2=O)cc1` [Compound 8f, 2-(((1-(4-Chlorophenyl)-1H-1,2,3-triazol-4-yl)methyl)thio)-3-(p-tolyl)quinazolin-4(3H)-one], the IC50 at BRAF^V600E stood at 69 ± 5 nM; in the data set on breast cancer (MCF-7) it was 34 ± 3 nM; in the data set on lung cancer (A-549), 37 ± 3 nM; with colon cancer (HT-29), 39 ± 3 nM; in data set [2], 38 ± 3 nM; on EGFR, 89 ± 5 nM. Further, the GI50 in data set [1] (Homo sapiens) is 37 nM. Besides, in data set [3], the viability at 4 days, 50 µM turned out to be 87%.
On to `Cc1cccc(-n2c(SCc3cn(-c4ccc(Cl)cc4)nn3)nc3ccccc3c2=O)c1` [Compound 8j, 2-(((1-(4-Chlorophenyl)-1H-1,2,3-triazol-4-yl)methyl)thio)-3-(m-tolyl)quinazolin-4(3H)-one], for which the IC50 at BRAF^V600E is 61 ± 5 nM; with breast cancer (MCF-7) it was 26 ± 2 nM; in the data set on lung cancer (A-549), 29 ± 2 nM; with colon cancer (HT-29), 30 ± 2 nM; in data set [2], 31 ± 2 nM; at EGFR it was 78 ± 5 nM. For the same molecule, the values for the GI50 in data set [1] (Homo sapiens) and in data set [1] were 33 nM and 29 nM, respectively. This molecule came in with a viability at 4 days, 50 µM in data set [3] of 87%.

Values taken from paper PMC11618052, “Design, synthesis, and antiproliferative activity of new 1,2,3-triazole/quinazoline-4-one hybrids as dual EGFR/BRAF^V600E inhibitors” (RSC Advances, 2024).
